Data published in the CheMixHub viscosity set.
“And” between values parts separate entries of the source, which are not always exact repeats. Equal values may be shown once.

Assay: xn = mol fraction of the nth substance listed

CC(C)(N)CO + O
viscosity
Conditions | 303.15 K | 308.15 K | 313.15 K | 318.15 K | 323.15 K
100 kPa, x1 = 0.01 | – | – | 0.77 mPa·s | – | –
100 kPa, x1 = 0.022 | – | – | 0.93 mPa·s | – | –
100 kPa, x1 = 0.048 | – | – | 1.36 mPa·s | – | –
100 kPa, x1 = 0.12 | – | – | 3.15 mPa·s | – | –
101 kPa, x1 = 0.0105 | 0.88 mPa·s | 0.79 mPa·s | 0.72 mPa·s | 0.65 mPa·s | 0.52 mPa·s
101 kPa, x1 = 0.0539 | 1.8 mPa·s | 1.59 mPa·s | 1.39 mPa·s | 1.23 mPa·s | 1 mPa·s
101 kPa, x1 = 0.0728 | 2.48 mPa·s | 2.1 mPa·s | 1.8 mPa·s | 1.56 mPa·s | 1.29 mPa·s
101 kPa, x1 = 0.1 | 3.54 mPa·s | 2.74 mPa·s | 2.29 mPa·s | 1.96 mPa·s | 1.7 mPa·s and 1.95 mPa·s
101 kPa, x1 = 0.1571 | 6.33 mPa·s | 4.28 mPa·s | 3.11 mPa·s | 2.86 mPa·s | 2.58 mPa·s
101 kPa, x1 = 0.2 | 11.06 mPa·s | – | 6.65 mPa·s | – | 4.14 mPa·s
101 kPa, x1 = 0.2559 | 13.3 mPa·s | 7.93 mPa·s | 5.49 mPa·s | 5.09 mPa·s | 4.51 mPa·s
101 kPa, x1 = 0.3 | 20.33 mPa·s | – | 11.74 mPa·s | – | 7.18 mPa·s
101 kPa, x1 = 0.3532 | 23.78 mPa·s | 16.16 mPa·s | 12.24 mPa·s | 9.26 mPa·s | 7.5 mPa·s
101 kPa, x1 = 0.4 | 32.25 mPa·s | – | 18.35 mPa·s | – | 11.9 mPa·s
101 kPa, x1 = 0.4546 | 41.28 mPa·s | 27.92 mPa·s | 20.29 mPa·s | 15.33 mPa·s | 10.88 mPa·s
101 kPa, x1 = 0.5 | 53.64 mPa·s | – | 25.49 mPa·s | – | 15.29 mPa·s
101 kPa, x1 = 0.5537 | 56.6 mPa·s | 38.93 mPa·s | 28.36 mPa·s | 20.9 mPa·s | 14.59 mPa·s
101 kPa, x1 = 0.6 | 60.63 mPa·s | – | 33.17 mPa·s | – | 16.56 mPa·s
101 kPa, x1 = 0.658 | 71.44 mPa·s | 49.28 mPa·s | 35.14 mPa·s | 25.89 mPa·s | 18.35 mPa·s
101 kPa, x1 = 0.7 | 82.98 mPa·s | – | 43.03 mPa·s | – | 20.8 mPa·s
101 kPa, x1 = 0.7001 | 76.44 mPa·s | 53.22 mPa·s | 37.3 mPa·s | 27.62 mPa·s | 19.8 mPa·s
101 kPa, x1 = 0.8 | 91.29 mPa·s | – | 46.27 mPa·s | – | 22.2 mPa·s
101 kPa, x1 = 0.8108 | 85.3 mPa·s | 57.86 mPa·s | 41.82 mPa·s | 31.42 mPa·s | 22.59 mPa·s
101 kPa, x1 = 0.9 | 96.39 mPa·s | – | 47.42 mPa·s | – | 23.4 mPa·s
101 kPa, x1 = 0.9082 | 88.75 mPa·s | 60 mPa·s | 43 mPa·s | 32.18 mPa·s | 22.98 mPa·s
101.33 kPa, x1 = 0.048 | 1.866 mPa·s | – | 1.405 mPa·s | – | 1.099 mPa·s
101.33 kPa, x1 = 0.08 | 3.053 mPa·s | – | 2.168 mPa·s | – | 1.621 mPa·s

CCCCN(CCCC)CCCC + CCO
viscosity [mPa·s], 101.33 kPa
Conditions | 298.15 K | 303.15 K | 308.15 K | 313.15 K | 318.15 K | 323.15 K
x1 = 0.0992 | – | 1.26 | – | 1.084 | – | 0.951
x1 = 0.1034 | 1.393 | – | 1.17 | – | 1.011 | –
x1 = 0.1456 | 1.458 | – | 1.225 | – | 1.06 | –
x1 = 0.1561 | – | 1.334 | – | 1.151 | – | 1.015
x1 = 0.1969 | – | 1.357 | – | 1.174 | – | 1.035
x1 = 0.2099 | 1.508 | – | 1.267 | – | 1.094 | –
x1 = 0.2529 | 1.52 | 1.371 | 1.276 | 1.183 | 1.098 | 1.04
x1 = 0.2945 | – | 1.367 | – | 1.18 | – | 1.033
x1 = 0.3036 | 1.52 | – | 1.274 | – | 1.091 | –
x1 = 0.3531 | 1.511 | – | 1.265 | – | 1.078 | –
x1 = 0.3639 | – | 1.349 | – | 1.163 | – | 1.012
x1 = 0.3986 | 1.501 | 1.341 | 1.255 | 1.153 | 1.065 | 1
x1 = 0.4508 | 1.488 | 1.325 | 1.242 | 1.137 | 1.049 | 0.982
x1 = 0.4951 | 1.477 | – | 1.231 | – | 1.036 | –
x1 = 0.503 | – | 1.309 | – | 1.122 | – | 0.967
x1 = 0.5448 | 1.467 | – | 1.221 | – | 1.024 | –
x1 = 0.5537 | – | 1.294 | – | 1.11 | – | 0.954
x1 = 0.601 | 1.458 | – | 1.211 | – | 1.012 | –
x1 = 0.6426 | – | 1.267 | – | 1.09 | – | 0.936
x1 = 0.6648 | 1.448 | – | 1.199 | – | 0.998 | –
x1 = 0.7126 | 1.441 | – | 1.19 | – | 0.988 | –
x1 = 0.7382 | – | 1.249 | – | 1.067 | – | 0.915
x1 = 0.7934 | 1.424 | – | 1.173 | – | 0.967 | –
x1 = 0.8711 | – | 1.207 | – | 1.027 | – | 0.876
x1 = 0.9196 | – | 1.186 | – | 1.012 | – | 0.861
x1 = 0.9232 | 1.391 | – | 1.138 | – | 0.928 | –
x1 = 0.9604 | – | 1.176 | – | 1.002 | – | 0.851

CCCCN(CCCC)CCCC + CC(C)O
viscosity [mPa·s], 101.33 kPa
Conditions | 298.15 K | 303.15 K | 308.15 K | 313.15 K | 318.15 K | 323.15 K
x1 = 0.0562 | 1.977 | – | 1.524 | – | 1.172 | –
x1 = 0.1016 | – | 1.679 | – | 1.292 | – | 1.009
x1 = 0.1175 | 1.876 | – | 1.46 | – | 1.132 | –
x1 = 0.1477 | – | 1.619 | – | 1.256 | – | 0.988
x1 = 0.1499 | 1.827 | – | 1.429 | – | 1.113 | –
x1 = 0.1897 | 1.772 | – | 1.394 | – | 1.092 | –
x1 = 0.1953 | – | 1.562 | – | 1.223 | – | 0.968
x1 = 0.224 | 1.728 | – | 1.367 | – | 1.075 | –
x1 = 0.2585 | – | 1.496 | – | 1.185 | – | 0.945
x1 = 0.2648 | 1.681 | – | 1.338 | – | 1.057 | –
x1 = 0.3035 | 1.641 | – | 1.313 | – | 1.041 | –
x1 = 0.3076 | – | 1.452 | – | 1.16 | – | 0.93
x1 = 0.3493 | 1.6 | – | 1.287 | – | 1.024 | –
x1 = 0.3539 | – | 1.415 | – | 1.139 | – | 0.918
x1 = 0.404 | 1.559 | – | 1.26 | – | 1.007 | –
x1 = 0.4061 | – | 1.379 | – | 1.118 | – | 0.906
x1 = 0.4528 | 1.528 | 1.351 | 1.24 | 1.101 | 0.994 | 0.898
x1 = 0.4899 | 1.508 | – | 1.226 | – | 0.985 | –
x1 = 0.5047 | – | 1.324 | – | 1.086 | – | 0.889
x1 = 0.5476 | – | 1.304 | – | 1.073 | – | 0.884
x1 = 0.5541 | 1.479 | – | 1.206 | – | 0.972 | –
x1 = 0.604 | 1.46 | – | 1.192 | – | 0.962 | –
x1 = 0.611 | – | 1.278 | – | 1.059 | – | 0.876
x1 = 0.6925 | 1.434 | – | 1.172 | – | 0.948 | –
x1 = 0.7023 | – | 1.247 | – | 1.042 | – | 0.866
x1 = 0.7872 | – | 1.221 | – | 1.027 | – | 0.859
x1 = 0.8457 | 1.399 | – | 1.145 | – | 0.927 | –
x1 = 0.9375 | – | 1.181 | – | 1.004 | – | 0.848
x1 = 0.9696 | – | 1.173 | – | 0.999 | – | 0.847
